Measured values as given in the supplement of paper PMC10307832.

Columns and labels:
Experiment in all cases: relative viability (nuclei count vs DMSO), 5 days (fraction); higher = more cells survive
[1] = compound: Cn1cc(-c2cnn3c(N)c(Br)c([C@@H]4CCCNC4)nc23)cn1 + CC(=O)Nc1cccc(-n2c(=O)n(C3CC3)c(=O)c3c(Nc4ccc(I)cc4F)n(C)c(=O)c(C)c32)c1 [Trametinib] (partner 0.02 µM)
Outline: (§1)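 Lung cancer cell lines, seeded in 1536-well plates, were treated the following day by pin tool with a single drug or with five library-drug doses (not always all listed) in √10 steps on top of a fixed anchor-drug dose. Cells were fixed and nuclei stained in one step after 5 days, and nuclei were counted. Relative viability is the nuclei count for treated wells divided by that for vehicle wells, reported as medians of duplicate plates.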

[2] = compound: Cn1cc(-c2cnn3c(N)c(Br)c([C@@H]4CCCNC4)nc23)cn1 + COc1cccc2cc(-c3nc([C@H]4CC[C@H](C(=O)O)CC4)n4ncnc(N)c34)[nH]c12 [OSI-027] (partner 0.5 µM)
Outline: as §1

[3] = compound: Cn1cc(-c2cnn3c(N)c(Br)c([C@@H]4CCCNC4)nc23)cn1 + CS(=O)(=O)CCNCc1ccc(-c2ccc3ncnc(Nc4ccc(OCc5cccc(F)c5)c(Cl)c4)c3c2)o1 [Lapatinib] (partner 2 µM)
Outline: as §1

[4] = compound: Cn1cc(-c2cnn3c(N)c(Br)c([C@@H]4CCCNC4)nc23)cn1 + C[C@]1(O)C[C@@H](c2nc(-c3ccc4ccc(-c5ccccc5)nc4c3)c3c(N)nccn32)C1 [Linsitinib] (partner 1 µM)
Outline: as §1

Cell Line | relative viability ([1]; first compound 0.05 µM) | relative viability ([1]; first compound 0.1581 µM) | relative viability ([1]; first compound 0.5 µM) | relative viability ([1]; first compound 1.581 µM) | relative viability ([1]; first compound 5 µM) | relative viability ([2]; first compound 0.05 µM) | relative viability ([2]; first compound 0.1581 µM) | relative viability ([2]; first compound 0.5 µM) | relative viability ([2]; first compound 1.581 µM) | relative viability ([2]; first compound 5 µM) | relative viability ([3]; first compound 0.05 µM) | relative viability ([3]; first compound 0.1581 µM) | relative viability ([3]; first compound 0.5 µM) | relative viability ([3]; first compound 1.581 µM) | relative viability ([3]; first compound 5 µM) | relative viability ([4]; first compound 0.05 µM) | relative viability ([4]; first compound 0.1581 µM) | relative viability ([4]; first compound 0.5 µM) | relative viability ([4]; first compound 1.581 µM) | relative viability ([4]; first compound 5 µM)
NCI-H23 | 0.364 | 0.401 | 0.304 | 0.355 | 0.178 | 0.589 | 0.549 | 0.506 | 0.491 | 0.268 | 1.08 | 1.23 | 1.02 | 0.825 | 0.267 | 0.575 | 0.642 | 0.466 | 0.449 | 0.244
NCI-H322M | 0.553 | 0.495 | 0.519 | 0.491 | 0.391 | 0.46 | 0.356 | 0.466 | 0.354 | 0.242 | 0.488 | 0.585 | 0.621 | 0.493 | 0.512 | 0.86 | 0.943 | 0.889 | 0.864 | 0.828
NCI-H358 | 0.132 | 0.115 | 0.122 | 0.102 | 0.121 | 0.808 | 0.787 | 0.56 | 0.616 | 0.743 | 0.465 | 0.477 | 0.446 | 0.46 | 0.378 | 0.7 | 0.626 | 0.608 | 0.581 | 0.523
NCI-H460 | 0.152 | 0.209 | 0.0974 | 0.0913 | 0.0615 | 0.725 | 0.765 | 0.515 | 0.203 | 0.0935 | 1.12 | 1.37 | 1.15 | 0.288 | 0.591 | 0.611 | 0.68 | 0.728 | 0.217 | 0.183
NCI-H520 | 0.685 | 0.642 | 0.591 | 0.699 | 0.542 | 0.214 | 0.215 | 0.269 | 0.265 | 0.288 | 0.819 | 0.685 | 0.649 | 0.705 | 0.707 | 0.991 | 0.939 | 0.931 | 0.733 | 0.561
NCI-H596 | 0.899 | 0.832 | 0.886 | 0.768 | 0.832 | 0.833 | 0.87 | 0.643 | 0.654 | 0.719 | 1.15 | 1.09 | 1.06 | 0.972 | 1 | 1.07 | 1.11 | 1.01 | 0.986 | 1.16
NCI-H647 | 0.52 | 0.44 | 0.403 | 0.373 | 0.313 | 0.66 | 0.718 | 0.612 | 0.588 | 0.479 | 1.43 | 1.22 | 1.17 | 0.497 | 0.275 | 1.12 | 1.24 | 0.85 | 0.796 | 0.42
NCI-H650 | 0.913 | 1.01 | 0.957 | 0.901 | 0.82 | 0.571 | 0.503 | 0.54 | 0.476 | 0.485 | 0.802 | 0.831 | 1.03 | 0.652 | 0.503 | 0.808 | 0.775 | 0.846 | 0.795 | 0.657
NCI-H661 | 0.562 | 0.59 | 0.495 | 0.534 | 0.478 | 0.711 | 0.789 | 0.718 | 0.513 | 0.511 | 0.441 | 0.503 | 0.518 | 0.48 | 0.324 | 0.557 | 0.592 | 0.579 | 0.479 | 0.314
NCI-H727 | 0.394 | 0.412 | 0.366 | 0.404 | 0.348 | 0.551 | 0.761 | 0.719 | 0.711 | 0.429 | 0.867 | 1.05 | 0.813 | 0.88 | 0.426 | 0.189 | 0.261 | 0.235 | 0.289 | 0.236
NCI-H838 | 0.501 | 0.521 | 0.496 | 0.505 | 0.471 | 0.386 | 0.416 | 0.371 | 0.367 | 0.338 | 0.955 | 1.15 | 0.964 | 0.667 | 0.775 | 0.984 | 1.09 | 0.987 | 0.824 | 0.962
NCI-H1355 | 0.369 | 0.426 | 0.433 | 0.491 | 0.417 | 0.442 | 0.469 | 0.416 | 0.372 | 0.328 | 1 | 1.08 | 0.92 | 0.969 | 0.859 | 0.798 | 0.911 | 0.738 | 0.82 | 0.814
NCI-H1395 | 1.22 | 0.544 | 0.883 | 0.569 | 0.444 | 0.606 | 0.574 | 0.631 | 0.487 | 0.338 | 1.01 | 0.634 | 0.756 | 0.833 | 0.397 | 1.19 | 0.679 | 1.11 | 0.616 | 0.431
NCI-H1437 | 0.504 | 0.611 | 0.562 | 0.428 | 0.355 | 0.826 | 1.11 | 0.954 | 0.803 | 0.733 | 0.802 | 0.975 | 0.741 | 0.563 | 0.505 | 1.17 | 1.16 | 0.954 | 0.604 | 0.821
NCI-H1651 | 0.885 | 0.925 | 0.88 | 0.857 | 0.461 | 0.653 | 0.787 | 0.618 | 0.453 | 0.242 | 0.733 | 0.874 | 0.708 | 0.494 | 0.367 | 0.949 | 0.977 | 0.869 | 0.574 | 0.356
NCI-H1666 | 0.92 | 0.867 | 0.892 | 0.959 | 0.71 | 0.827 | 0.966 | 0.913 | 0.812 | 0.66 | 0.576 | 0.648 | 0.555 | 0.559 | 0.594 | 0.896 | 0.745 | 0.653 | 0.714 | 0.711
NCI-H1734 | 0.667 | 0.802 | 0.665 | 0.658 | 0.576 | 0.59 | 0.581 | 0.563 | 0.54 | 0.362 | 1.06 | 1.08 | 0.917 | 0.944 | 0.778 | 0.942 | 0.932 | 0.901 | 0.778 | 0.744
NCI-H1755 | 0.783 | 0.802 | 0.744 | 0.782 | 0.765 | 0.74 | 0.803 | 0.715 | 0.693 | 0.587 | 1.15 | 1.14 | 1.09 | 0.743 | 0.758 | 1.07 | 1.04 | 0.978 | 0.924 | 0.972
NCI-H1792 | 0.409 | 0.6 | 0.536 |  | 0.513 |  | 0.91 | 0.677 | 0.574 | 0.719 | 0.84 | 1.06 | 0.335 | 0.718 | 0.784 | 0.709 | 0.531 | 0.347 | 0.327 | 0.274
NCI-H1793 | 0.451 | 0.36 | 0.367 | 0.481 | 0.458 | 0.286 | 0.282 | 0.324 | 0.309 | 0.304 | 0.709 | 0.926 | 0.689 | 0.753 | 0.259 | 0.983 | 1.18 | 0.87 | 0.83 | 0.513
NCI-H1915 | 0.479 | 0.313 | 0.304 | 0.347 | 0.301 | 0.646 | 0.631 | 0.566 | 0.543 | 0.561 | 1 | 0.959 | 0.989 | 0.825 | 0.954 | 1.1 | 1.07 | 1.05 | 1.16 | 1.14
NCI-H1944 | 0.406 | 0.382 | 0.39 | 0.374 | 0.379 | 0.427 | 0.454 | 0.39 | 0.349 | 0.278 | 0.823 | 0.832 | 0.761 | 0.605 | 0.577 | 1.16 | 1.2 | 1.12 | 1.06 | 0.867
NCI-H1975 | 0.356 | 0.328 | 0.326 | 0.331 | 0.239 | 0.895 | 0.72 | 0.706 | 0.554 | 0.654 | 0.888 | 0.862 | 0.835 | 0.635 | 0.798 | 1.08 | 0.918 | 0.842 | 0.79 | 0.805
NCI-H1993 | 0.518 | 0.467 | 0.643 | 0.435 | 0.511 | 0.603 | 0.551 | 0.389 | 0.55 | 0.54 | 0.634 | 0.858 |  | 0.739 | 0.759 | 0.718 | 0.69 |  | 0.672 | 0.739
NCI-H2009 | 0.272 | 0.284 | 0.271 | 0.252 | 0.224 | 0.681 | 0.709 | 0.534 | 0.515 | 0.422 | 0.975 | 1.06 | 0.865 | 0.798 | 0.794 | 1.14 | 1.31 | 1.22 | 1.12 | 1.09
NCI-H2023 | 0.606 | 0.336 | 0.416 | 0.227 | 0.185 | 0.438 | 0.342 | 0.269 | 0.159 | 0.13 | 0.978 | 0.739 | 0.416 | 0.258 | 0.127 | 0.582 | 0.452 | 0.421 | 0.244 | 0.135
NCI-H2085 | 0.532 | 0.664 | 0.548 | 0.484 | 0.287 | 0.809 | 0.954 | 0.78 | 0.652 | 0.431 | 0.801 | 0.847 | 0.893 | 0.738 | 0.621 | 0.85 | 0.885 | 0.859 | 0.824 | 0.779
